Measurements published in ChEMBL document CHEMBL4715755, “Isothiouronium modification empowers pyrimidine-substituted curcumin analogs potent cytotoxicity and Golgi localization” (Eur J Med Chem, 2016).
Calls of active or inactive are those of the source. The rule behind the calls is not given here.

Legend:
[1] = tested on: HT-29; assay: Cytotoxicity against human HT-29 cells assessed as reduction in cell viability incubated for 48 hrs by resazurin reagent based fluorescence assay; type: functional; details: HT-29, 48 h
[2] = tested on: HCT-116; assay: Cytotoxicity against human HCT-116 cells assessed as reduction in cell viability incubated for 48 hrs by resazurin reagent based fluorescence assay; type: functional; details: HCT-116, 48 h
[3] = tested on: NCI-H1299; assay: Cytotoxicity against human NCI-H1299 cells assessed as reduction in cell viability incubated for 48 hrs by resazurin reagent based fluorescence assay; type: functional; details: NCI-H1299, 48 h
[4] = tested on: A549; assay: Cytotoxicity against human A549 cells assessed as reduction in cell viability incubated for 48 hrs by resazurin reagent based fluorescence assay; type: functional; details: A549, 48 h
[5] = tested on: CHO-K1; assay: Cytotoxicity against CHO-K1 cells assessed as reduction in cell viability at 10 uM incubated for 48 hrs by resazurin reagent based fluorescence assay; parameters: species or system Cricetulus griseus; details: chinese hamster, cho-k1, 48 h
[6] = Cytotoxicity against GAG-deficient CHO-745 cells assessed as reduction in cell viability at 10 uM incubated for 48 hrs by resazurin reagent based fluorescence assay; parameters: species or system Cricetulus griseus; details: chinese hamster, cho-745, 48 h
[7] = Cytotoxicity against heparan sulfate-deficient CHO-677 cells assessed as reduction in cell viability at 10 uM incubated for 48 hrs by resazurin reagent based fluorescence assay; parameters: species or system Cricetulus griseus; details: chinese hamster, cho-677, 48 h
[8] = tested on: CHO; assay: Cytotoxicity against CHO cells overexpressing 3-O-sulfotransferase 1 assessed as reduction in cell viability at 10 uM incubated for 48 hrs by resazurin reagent based fluorescence assay; parameters: species or system Cricetulus griseus; details: chinese hamster
[9] = tested on: CHO; assay: Cytotoxicity against CHO cells overexpressing 3-O-sulfotransferase 2 assessed as reduction in cell viability at 10 uM incubated for 48 hrs by resazurin reagent based fluorescence assay; parameters: species or system Cricetulus griseus; details: chinese hamster
[10] = tested on: CHO; assay: Cytotoxicity against CHO cells overexpressing 3-O-sulfotransferase 3 assessed as reduction in cell viability at 10 uM incubated for 48 hrs by resazurin reagent based fluorescence assay; parameters: species or system Cricetulus griseus; details: chinese hamster
[11] = tested on: CHO; assay: Cytotoxicity against CHO cells overexpressing 3-O-sulfotransferase 4 assessed as reduction in cell viability at 10 uM incubated for 48 hrs by resazurin reagent based fluorescence assay; parameters: species or system Cricetulus griseus; details: chinese hamster
[12] = tested on: A549; assay: Cytotoxicity against human A549 cells assessed as reduction in cell viability at 10 uM incubated for 48 hrs by resazurin reagent based fluorescence assay; type: functional
[13] = Drug localization in cytoplasm of human HCT-116 cells at 10 uM measured upto 12 hrs by Golgin-97 and DAPI staining based laser scanning confocal microscopic analysis; type: ADME, subcellular; details: hct-116, 12 h
[14] = Drug localization in cytoplasm of human A549 cells at 10 uM measured upto 12 hrs by Golgin-97 and DAPI staining based laser scanning confocal microscopic analysis; type: ADME, subcellular; details: a549, 12 h
[15] = Drug localization in cytoplasm of human A549 cells at 10 uM incubated for 4 hrs by Golgin-97 and DAPI staining based laser scanning confocal microscopic analysis; type: ADME, subcellular; details: a549, 4 h
[16] = Drug localization in golgi bodies of human HCT-116 cells at 10 uM measured upto 12 hrs by Golgin-97 and DAPI staining based laser scanning confocal microscopic analysis; type: ADME, subcellular, Golgi body; details: hct-116, 12 h
[17] = Drug localization in golgi bodies of human A549 cells at 10 uM measured upto 12 hrs by Golgin-97 and DAPI staining based laser scanning confocal microscopic analysis; type: ADME, subcellular, Golgi body; details: a549, 12 h
[18] = Drug localization in golgi bodies of human A549 cells at 10 uM incubated for 4 hrs by Golgin-97 and DAPI staining based laser scanning confocal microscopic analysis; type: ADME, subcellular, Golgi body; details: a549, 4 h
[19] = Drug localization in golgi vesicles of human A549 cells at 10 uM incubated for 4 hrs by Golgin-97 and DAPI staining based laser scanning confocal microscopic analysis; type: ADME, subcellular, Golgi body; details: a549, 4 h

SMILES	IC50 [1]	IC50 [2]	IC50 [3]	IC50 [4]	also measured
COc1ccc(/C=C/c2cc(/C=C/c3ccc(OC)c(OC)c3)nc(OCCCCCCSC(=N)N)n2)cc1OC	1.72 µM	2.02 µM	3.75 µM	2.09 µM	
N=C(N)SCCCCCCOc1nc(/C=C/c2ccccc2)cc(/C=C/c2ccccc2)n1	2.89 µM	2.3 µM	6.4 µM	3.98 µM	
Br.COc1ccc(/C=C/c2cc(/C=C/c3ccc(OC)c(OC)c3)nc(OCCCCSC(=N)N)n2)cc1OC	0.61 µM	1.86 µM	1.53 µM	2.36 µM	Activity [5]: Toxic; Activity [6]: Toxic; Activity [7]: Toxic; Activity [8]: Toxic; Activity [9]: Toxic; Activity [10]: Toxic; Activity [11]: Toxic; Activity [12]: Active
COc1ccc(/C=C/c2cc(/C=C/c3ccc(OC)cc3)nc(OCCCCBr)n2)cc1	> 20 µM	> 20 µM	> 20 µM	> 20 µM	Drug uptake [13]: Active; Drug uptake [14]: Active; Activity [5]: Non-Toxic; Activity [6]: Non-Toxic; Activity [7]: Non-Toxic; Activity [8]: Non-Toxic; Activity [9]: Non-Toxic; Activity [10]: Non-Toxic; Activity [11]: Non-Toxic; Activity [12]: inactive; Drug uptake [15]: Active
COc1ccc(/C=C/c2cc(/C=C/c3ccc(OC)c(OC)c3)nc(OCCCCSC(N(C)C)=[N+](C)C)n2)cc1OC.[Br-]	4.1 µM	3.89 µM	5.81 µM	9.71 µM	Activity [5]: Non-Toxic; Activity [6]: Non-Toxic; Activity [7]: Non-Toxic; Activity [8]: Non-Toxic; Activity [9]: Non-Toxic; Activity [10]: Non-Toxic; Activity [11]: Non-Toxic; Activity [12]: Active
COc1ccc(/C=C/c2cc(/C=C/c3ccc(OC)c(OC)c3)nc(OCCCCCBr)n2)cc1OC	> 20 µM	> 20 µM	> 20 µM	> 20 µM	
COc1cc(/C=C/c2cc(/C=C/c3cc(OC)c(OC)c(OC)c3)nc(OCCCCCBr)n2)cc(OC)c1OC	> 20 µM	> 20 µM	> 20 µM	> 20 µM	
COc1ccc(/C=C/c2cc(/C=C/c3ccc(OC)cc3)nc(OCCCCSC(N(C)C)=[N+](C)C)n2)cc1.[Br-]	5.97 µM	3 µM	7.49 µM	2.26 µM	Drug uptake [16]: Not Active; Drug uptake [17]: Not Active; Activity [5]: Non-Toxic; Activity [6]: Non-Toxic; Activity [7]: Non-Toxic; Activity [8]: Non-Toxic; Activity [9]: Non-Toxic; Activity [10]: Non-Toxic; Activity [11]: Non-Toxic; Activity [12]: Active
COc1cc(/C=C/c2cc(/C=C/c3cc(OC)c(OC)c(OC)c3)nc(OCCCCCSC(=N)N)n2)cc(OC)c1OC	1.86 µM	2.08 µM	4.13 µM	2.88 µM	
COc1cc(/C=C/c2cc(/C=C/c3cc(OC)c(OC)c(OC)c3)nc(OCCCCCCBr)n2)cc(OC)c1OC	> 20 µM	> 20 µM	> 20 µM	> 20 µM	
COc1ccc(/C=C/c2cc(/C=C/c3ccc(OC)cc3)nc(OCCCCCBr)n2)cc1	> 20 µM	> 20 µM	> 20 µM	> 20 µM	
COc1cc(/C=C/c2cc(/C=C/c3cc(OC)c(OC)c(OC)c3)nc(OCCCCSC(=N)N)n2)cc(OC)c1OC	2.19 µM	3.77 µM	5.1 µM	4.24 µM	
COc1ccc(/C=C/c2cc(/C=C/c3ccc(OC)cc3)nc(OCCCCCCBr)n2)cc1	> 20 µM	> 20 µM	> 20 µM	> 20 µM	
COc1ccc(/C=C/c2cc(/C=C/c3ccc(OC)c(OC)c3)nc(OCCCCCCBr)n2)cc1OC	> 20 µM	> 20 µM	> 20 µM	> 20 µM	
Br.COc1ccc(/C=C/c2cc(/C=C/c3ccc(OC)cc3)nc(OCCCCSC(=N)N)n2)cc1	0.79 µM	1 µM	0.92 µM	0.99 µM	Drug uptake [16]: Active; Drug uptake [17]: Active; Activity [5]: Toxic; Activity [6]: Toxic; Activity [7]: Toxic; Activity [8]: Toxic; Activity [9]: Toxic; Activity [10]: Toxic; Activity [11]: Toxic; Activity [12]: Active; Drug uptake [18]: Active
COc1cc(/C=C/c2cc(/C=C/c3cc(OC)c(OC)c(OC)c3)nc(OCCCCSC(N(C)C)=[N+](C)C)n2)cc(OC)c1OC	10.5 µM	5.41 µM	15 µM	14.4 µM	
Br.COc1ccc(/C=C/c2cc(/C=C/c3ccc(OC)cc3)nc(OCCCCCCSC(=N)N)n2)cc1	2.14 µM	1.98 µM	3.69 µM	1.97 µM	Drug uptake [16]: Active; Drug uptake [17]: Active; Drug uptake [19]: Active
N=C(N)SCCCCOc1nc(/C=C/c2ccccc2)cc(/C=C/c2ccccc2)n1	1.75 µM	1.87 µM	4.51 µM	4.57 µM	
N=C(N)SCCCCCOc1nc(/C=C/c2ccccc2)cc(/C=C/c2ccccc2)n1	2.82 µM	2.39 µM	7.09 µM	4.11 µM	
BrCCCCCCOc1nc(/C=C/c2ccccc2)cc(/C=C/c2ccccc2)n1	> 20 µM	> 20 µM	> 20 µM	> 20 µM	
BrCCCCOc1nc(/C=C/c2ccccc2)cc(/C=C/c2ccccc2)n1	> 20 µM	> 20 µM	> 20 µM	> 20 µM	
COc1ccc(/C=C/c2cc(/C=C/c3ccc(OC)c(OC)c3)nc(OCCCCBr)n2)cc1OC	> 20 µM	> 20 µM	> 20 µM	> 20 µM	Activity [5]: Toxic; Activity [6]: Toxic; Activity [7]: Toxic; Activity [8]: Toxic; Activity [9]: Toxic; Activity [10]: Toxic; Activity [11]: Toxic; Activity [12]: Active
COc1cc(/C=C/c2cc(/C=C/c3cc(OC)c(OC)c(OC)c3)nc(OCCCCBr)n2)cc(OC)c1OC	> 20 µM	> 20 µM	> 20 µM	> 20 µM	
Br.COc1ccc(/C=C/c2cc(/C=C/c3ccc(OC)cc3)nc(OCCCCCSC(=N)N)n2)cc1	2.03 µM	1.93 µM	2.96 µM	1.97 µM	Drug uptake [16]: Active; Drug uptake [17]: Active; Drug uptake [19]: Active
COc1ccc(/C=C/c2cc(/C=C/c3ccc(OC)c(OC)c3)nc(OCCCCCSC(=N)N)n2)cc1OC	1.91 µM	1.81 µM	4.04 µM	1.99 µM	
BrCCCCCOc1nc(/C=C/c2ccccc2)cc(/C=C/c2ccccc2)n1	> 20 µM	> 20 µM	> 20 µM	> 20 µM	
COc1cc(/C=C/c2cc(/C=C/c3cc(OC)c(OC)c(OC)c3)nc(OCCCCCCSC(=N)N)n2)cc(OC)c1OC	1.17 µM	1.87 µM	3.09 µM	2 µM	
